The assay has as its system P388 leukemia. Description: NCI tumour cell line growth inhibition, 48 h.

Values joined by “and” are separate entries in the source; they are usually repeats but may differ in a detail not shown here. Equal values may be shown once.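 Results reflect a 48-hour exposure of cells in 96-well plates to compound at five concentrations. GI50 = concentration required for 50% inhibition of growth. TGI: total growth inhibition.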

Consider `CC(C)CCCCCCCCCCCCC(=O)NCC(=O)NC1C(O)C(O)C(Nc2ncnc3nc[nH]c23)OC1C(O)CO` (configuration not stated), for which the GI50 was 5 nM; the TGI was 6.16 nM and 5.07 nM.

The values above are taken from PubChem BioAssay (NCI).
